“Also recorded” adds a separate entry of the source. Where two headings read alike, the source gives them in different places.
Columns and labels:
Format in all cases: biochemical
[1] = target: T1, Electrophorus electricus AChE (EeAChE) (Electrophorus electricus, UniProt O42275); assay: Inhibition constant and mechanism vs EeAChE, Dixon's method; conditions: for inhibition mechanism on EeAChE: Dixon's plot, best fitting model; for α, EeAChE: mixed inhibition, α > 1 free enzyme, α < 1 enzyme–substrate complex; for Ki: three substrate and five inhibitor concentrations, read-out: Ki ± SD, EeAChE
T1 construct: purchased Sigma-Aldrich (Milan, Italy)
Method: (§1) . The recorded data were analyzed with the enzyme kinetic module of SigmaPlot to find the best fitting model of inhibition using the linear regression analysis. The reference kinetic models used in the regression analysis were competitive, noncompetitive, uncompetitive, and mixed. Each determination was repeated five times, and incorrect values were discarded to reduce the standard deviation within the limit of 5%. In this way, the regression lines obtained have a linear regression coefficient (R^2) higher than 0.95. Dixon’s plots of all tested compounds are reported in the Supporting Information (Figures S1–S12).
(§2) 18, 22, 25, 26, 28, and 30 toward eqBChE). For each compound, a 500 μM stock solution was prepared in H2O/DMSO or in 10^–2 M HCl and diluted in water to prepare solutions of opportune concentrations to introduce in the cuvette volumes ranging from 30 to 100 μL, to obtain the desired final concentrations. The maximum amount of DMSO used for the preparation of the stock solution was calculated to have a DMSO content in cuvette <0.033%.
(§3) Three milliliters of 0.1 M phosphate buffer (pH = 7.4) containing DTNB (0.25 mM) and EeAChE (0.083 UmL^–1) or eqBChE (0.083 UmL^–1) was mixed with the opportune volume of the inhibitor solution to obtain a final inhibitor concentration in cuvette between 90 and 1800 nM. With this solution, the blank was made. […]. The absorbance variations were measured at 412 nm at 25 °C between 0.5 and 1.5 min.
(§4) To determine the inhibition constants (Ki) and the inhibition mechanisms, the rates of hydrolysis at three different concentrations of substrate in the presence of five different concentrations of inhibitor were measured.

equine BChE (eqBChE) [2] = target: T2, equine BChE (eqBChE) (Equus caballus, UniProt P81908); assay: Percent inhibition of eqBChE, Ellman's spectrophotometric method; conditions: for % inhibition vs eqBChE ± SD (900 uM): 900 nM; for inhibition at 0.9 µM: [I] 900 nM
T2 construct: purchased Sigma-Aldrich (Milan, Italy)
Method: On the synthesized compounds, enzymatic inhibition studies were carried out toward Electrophorus electricus AChE (EeAChE) and equine BChE (eqBChE) according to Ellman’s spectrophotometric method.[25]
All other chemical and biological reagents and solvents used were of the highest analytical, commercially available grade. The water, utilized for the preparation of the phosphate buffer and of the compound solutions, was distilled and filtered on nylon membrane filters with a 0.2 μm pore size with the Millipore Filtration apparatus before each use. Micropipettes Labmate (BRAND Dig. 10–100 μL; Dig. 100–1000 μL; Dig. 0.1–2 μL) and Transferpette (HIGH TECH LAB LM200: 20–200 μL; LM5000: 1000–5000 μL) were used to collect the samples. The assays were carried out by a double beam UV–vis Lambda 40 Perkin Elmer spectrophotometer using optical polystyrene cuvettes (10 × 10 × 45 mm, 340–800 nm optical transparency); each measure was repeated at least in triplicate. […] The spectrophotometric method of Ellman[25] with minor modifications was used to evaluate the inhibition of ChEs. […] EeAChE and eqBChE were periodically tested to evaluate the effective enzymatic activity.
For all the synthesized compounds, the percentages of inhibition toward AChE of Electrophorus electricus (EeAChE) and equine BChE (eqBChE) were evaluated.
Three milliliters of a solution in 0.1 M phosphate buffer (pH = 7.4) containing DTNB (0.25 mM) and EeAChE (0.083 UmL^–1) or eqBChE (0.083 UmL^–1) was placed in a polystyrene cuvette of 1.0 cm path length; 1 μL of a solution in DMSO of the tested compound was added to obtain a cuvette concentration range of 9–0.09 μM. With this solution, the blank was made. […] Each experiment was repeated at least in triplicate.

equine BChE (eqBChE) [3] = target: T2, equine BChE (eqBChE); assay: Inhibition constant and mechanism vs eqBChE, Dixon's method; conditions: for inhibition mechanism on eqBChE: Dixon's plot, best fitting model; for α, eqBChE: mixed inhibition, α > 1 free enzyme, α < 1 enzyme–substrate complex; for Ki: three substrate and five inhibitor concentrations, read-out: Ki ± SD, eqBChE
Method: as §1, §2, §3, §4

[4] = [I] 9 μM, 0.0833 U/mL enzyme, 100 μM acetylthiocholine, read-out: % inhibition vs eqBChE ± SD
[5] = read-out: % inhibition vs eqBChE ± SD (9 uM), 9 uM, supplement csv
[6] = 0.0833 U/mL enzyme, 100 μM acetylthiocholine, read-out: % inhibition vs eqBChE ± SD

T1 sequence (O42275 24-633): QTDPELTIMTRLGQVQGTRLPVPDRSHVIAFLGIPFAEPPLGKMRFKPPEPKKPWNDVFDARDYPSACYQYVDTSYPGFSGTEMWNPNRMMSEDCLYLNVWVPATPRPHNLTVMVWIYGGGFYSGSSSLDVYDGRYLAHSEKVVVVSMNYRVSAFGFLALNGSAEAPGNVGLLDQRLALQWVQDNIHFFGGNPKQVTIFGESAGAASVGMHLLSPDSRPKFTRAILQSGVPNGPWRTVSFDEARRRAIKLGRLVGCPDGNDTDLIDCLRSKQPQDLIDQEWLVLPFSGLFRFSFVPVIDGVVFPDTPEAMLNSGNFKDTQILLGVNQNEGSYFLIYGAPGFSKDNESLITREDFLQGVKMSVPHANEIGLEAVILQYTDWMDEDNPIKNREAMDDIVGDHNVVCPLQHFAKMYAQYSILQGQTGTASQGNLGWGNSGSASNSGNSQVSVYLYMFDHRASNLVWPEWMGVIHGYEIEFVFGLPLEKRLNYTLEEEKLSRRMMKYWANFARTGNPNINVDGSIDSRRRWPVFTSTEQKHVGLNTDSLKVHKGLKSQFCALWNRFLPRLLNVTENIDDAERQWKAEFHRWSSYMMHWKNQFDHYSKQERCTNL
T2 sequence (P81908 whole entry): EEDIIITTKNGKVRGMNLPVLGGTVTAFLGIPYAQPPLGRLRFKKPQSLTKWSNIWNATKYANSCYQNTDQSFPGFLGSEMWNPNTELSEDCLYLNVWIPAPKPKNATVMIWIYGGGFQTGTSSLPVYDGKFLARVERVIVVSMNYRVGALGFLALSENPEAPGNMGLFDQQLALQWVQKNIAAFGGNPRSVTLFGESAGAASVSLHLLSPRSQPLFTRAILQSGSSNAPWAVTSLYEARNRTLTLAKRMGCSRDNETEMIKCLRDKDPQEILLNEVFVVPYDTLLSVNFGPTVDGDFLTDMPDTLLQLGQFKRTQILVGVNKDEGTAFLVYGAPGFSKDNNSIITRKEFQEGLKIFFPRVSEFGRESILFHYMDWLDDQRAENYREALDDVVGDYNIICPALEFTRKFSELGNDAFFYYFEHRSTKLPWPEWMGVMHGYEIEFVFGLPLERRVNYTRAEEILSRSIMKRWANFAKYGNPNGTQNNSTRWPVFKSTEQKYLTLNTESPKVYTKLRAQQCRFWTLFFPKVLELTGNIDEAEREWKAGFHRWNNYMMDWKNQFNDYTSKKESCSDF

| Structure (SMILES) | inhibition mechanism on EeAChE [1] | α, EeAChE [1] | Ki [1] [nM] | inhibition at 9 µM (equine BChE (eqBChE) [2]; [4]) [%] | inhibition at 9 µM (equine BChE (eqBChE) [2]; [5]) [%] | inhibition mechanism on eqBChE (equine BChE (eqBChE) [3]) | α, eqBChE (equine BChE (eqBChE) [3]) | Ki (equine BChE (eqBChE) [3]) [nM] | % inhibition vs eqBChE ± SD (900 uM) (equine BChE (eqBChE) [2]; supplement csv) [%] | inhibition at 0.9 µM (equine BChE (eqBChE) [2]; [6]) [%] | % inhibition vs eqBChE ± SD (equine BChE (eqBChE) [2]; [I] 9 μM, 0.0833 U/mL enzyme, 100 μM acetylthiocholine) [%] | inhibition at 0.09 µM (equine BChE (eqBChE) [2]; [I] 90 nM, 0.0833 U/mL enzyme, 100 μM acetylthiocholine, read-out: % inhibition vs eqBChE ± SD) [%] |
| --- | --- | --- | --- | --- | --- | --- | --- | --- | --- | --- | --- | --- |
| c1ccc(CNCCCCCNc2ncccn2)cc1 [Compound 9, N^1-Benzyl-N^5-(pyrimidin-2-yl)pentane-1,5-diamine] | mixed | 7.5 | 312 ± 108 | 17.4 ± 2.7 | 17.4 ± 2.7 |  |  |  |  |  |  |  |
| c1ccc(CNCCCCCCNc2ncccn2)cc1 [Compound 13, N^1-Benzyl-N^6-(pyrimidin-2-yl)hexane-1,6-diamine] | mixed | 0.3 | 426 ± 132 | 26 ± 3.5 | 26 ± 3.5 |  |  |  |  |  |  |  |
| COc1cc(CNCCCCCCNc2ncccn2)ccc1O [Compound 18, 2-Methoxy-4-(((6-(pyrimidin-2-ylamino)hexyl)amino)methyl)phenol] |  |  |  | 84 | 84.4 ± 0.8 | mixed | 7.3 | 3030 ± 604 | 44.2 ± 6.4 | 44 |  |  |
| Oc1cccc(CNCCCCCCNc2ncccn2)c1 [Compound 19, 3-(((6-(Pyrimidin-2-ylamino)hexyl)amino)methyl)phenol] | uncompetitive; also recorded: uncomp |  | 509 ± 18 | 26.6 ± 3.9 | 26.6 ± 3.9 |  |  |  |  |  |  |  |
| Oc1cccc(CNCCCCCCNc2ncccn2)c1O [Compound 20, 3-(((6-(Pyrimidin-2-ylamino)hexyl)amino)methyl)benzene-1,2-diol] |  |  |  | 17.1 ± 1.6 | 17.1 ± 1.6 |  |  |  |  |  |  |  |
| c1cnc(NCCCCCCNCc2c[nH]c3ccccc23)nc1 [Compound 22, N^1-((1H-Indol-3-yl)methyl)-N^6-(pyrimidin-2-yl)hexane-1,6-diamine] |  |  |  | 94 | 94 ± 0.7 | mixed | 10 | 99 ± 71 | 65.1 ± 3.8 | 65 | 94.0 ± 0.7 |  |
| c1ccc(CNCCCCCNc2ccccn2)cc1 [Compound 23, N^1-Benzyl-N^5-(pyridin-2-yl)pentane-1,5-diamine] | mixed | 2.2 | 743 ± 316 | 56.5 ± 3 | 5 ± 5.8 |  |  |  |  | 5 ± 5.8 |  |  |
| c1ccc(CNCCCCCCNc2ccccn2)cc1 [Compound 25, N^1-Benzyl-N^6-(pyridin-2-yl)hexane-1,6-diamine] | mixed | 0.8 | 995 ± 374 | 71.6 ± 2.1 | 16.6 ± 6.3 | mixed | 2.2 | 2370 ± 304 |  | 16.6 ± 6.3 |  |  |
| Brc1ccc(CNCCCCCCNc2ccccn2)cc1 [Compound 26, N^1-(4-Bromobenzyl)-N^6-(pyridin-2-yl)hexane-1,6-diamine] |  |  |  | 76.8 ± 0.5 | 17 ± 2.7 | mixed | 0.5 | 3460 ± 1480 |  | 17 ± 2.7 |  |  |
| COc1ccccc1CNCCCCCCNc1ccccn1 [Compound 28, N^1-(2-Methoxybenzyl)-N^6-(pyridin-2-yl)hexane-1,6-diamine] | mixed | 1.2 | 1320 ± 622 | 74.3 ± 1.4 | 24.2 ± 3.3 | mixed | 0.8 | 3430 ± 701 |  | 24.2 ± 3.3 |  |  |
| COc1cc(CNCCCCCCNc2ccccn2)ccc1O [Compound 30, 2-Methoxy-4-(((6-(pyridin-2-ylamino)hexyl)amino)methyl)phenol] |  |  |  | 91 | 51.2 ± 3.1 | mixed | 1.4 | 1100 ± 189 | 15.6 ± 6.1 | 51 |  | 15.6 ± 6.1 |
